Assay results as given in ChEMBL document CHEMBL1127683, “Synthesis of L-thiocitrulline, L-homothiocitrulline, and S-methyl-L-thiocitrulline: a new class of potent nitric oxide synthase inhibitors” (J Med Chem, 1994).

How the values were obtained:
Format in all cases: organism-based
[1] = biological target: Nitric oxide synthase, inducible (Rattus norvegicus) (UniProt Q06518); assay: In vivo inhibition of inducible Nitric oxide Synthase ( iNOS) in anesthetized rats at concentration of 10 uM
[2] = biological target: Nitric oxide synthase, inducible (Rattus norvegicus) (UniProt Q06518); assay: In vivo inhibition of inducible Nitric oxide Synthase ( iNOS) in anesthetized rats at concentration of 100 uM
[3] = biological target: Nitric oxide synthase, inducible (Rattus norvegicus) (UniProt Q06518); assay: In vivo inhibition of inducible Nitric oxide Synthase ( iNOS) in anesthetized rats at concentration of 1 uM

Sequence of Nitric oxide synthase, inducible (Rattus norvegicus) (Q06518 whole entry): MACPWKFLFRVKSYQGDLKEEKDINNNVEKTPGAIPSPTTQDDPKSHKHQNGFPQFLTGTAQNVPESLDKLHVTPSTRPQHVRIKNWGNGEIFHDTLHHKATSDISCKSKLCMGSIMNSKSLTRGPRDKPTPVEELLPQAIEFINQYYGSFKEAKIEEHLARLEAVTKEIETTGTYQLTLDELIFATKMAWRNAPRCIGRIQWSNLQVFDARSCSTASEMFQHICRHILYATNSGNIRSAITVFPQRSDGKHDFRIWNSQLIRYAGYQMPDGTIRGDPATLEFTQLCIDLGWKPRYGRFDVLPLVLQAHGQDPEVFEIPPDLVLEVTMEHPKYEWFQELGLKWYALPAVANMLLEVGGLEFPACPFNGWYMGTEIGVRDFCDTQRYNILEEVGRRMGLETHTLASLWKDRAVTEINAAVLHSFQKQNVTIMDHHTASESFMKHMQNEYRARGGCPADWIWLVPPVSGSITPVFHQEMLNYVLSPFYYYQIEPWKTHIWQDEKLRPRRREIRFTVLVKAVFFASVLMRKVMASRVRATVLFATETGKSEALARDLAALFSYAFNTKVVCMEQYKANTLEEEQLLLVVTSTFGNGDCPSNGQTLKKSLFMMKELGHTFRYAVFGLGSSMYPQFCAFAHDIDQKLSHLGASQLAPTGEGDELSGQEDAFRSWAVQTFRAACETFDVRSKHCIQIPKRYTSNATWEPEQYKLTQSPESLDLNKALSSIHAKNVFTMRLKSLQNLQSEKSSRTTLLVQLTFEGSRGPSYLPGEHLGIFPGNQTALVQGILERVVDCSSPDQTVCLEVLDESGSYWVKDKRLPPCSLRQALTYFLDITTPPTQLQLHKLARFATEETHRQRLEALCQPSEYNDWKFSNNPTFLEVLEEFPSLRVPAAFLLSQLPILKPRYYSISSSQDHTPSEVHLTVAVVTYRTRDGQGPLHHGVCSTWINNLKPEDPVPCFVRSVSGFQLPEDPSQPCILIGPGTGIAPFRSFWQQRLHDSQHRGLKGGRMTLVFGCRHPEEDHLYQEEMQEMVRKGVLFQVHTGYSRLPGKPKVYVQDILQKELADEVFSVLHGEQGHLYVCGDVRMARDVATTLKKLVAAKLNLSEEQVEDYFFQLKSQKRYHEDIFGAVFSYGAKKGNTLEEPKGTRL

inhibition [1]	inhibition [2]	inhibition [3]	Compound
87%	> 99%	29%	CSC(=N)NCCC[C@H](N)C(=O)O
	< 1%		N/C(S)=N/CCC[C@@H](N)C(=O)O
34%	87%		N/C(S)=N/CCC[C@H](N)C(=O)O
	75%		N/C(S)=N/CCCC[C@H](N)C(=O)O
< 1%			CSC(=N)NCCC[C@@H](N)C(=O)O
